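48-hour exposure; five concentrations; linearly interpolated endpoints. Here, GI50 denotes the concentration required for 50% inhibition of growth. At the TGI there is no net growth.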 A value given as a limit tells only on which side of the number the result lay.

Test systems include KM12 colon; MCF7 breast; SN12C renal; HOP-92 NSCLC; K-562 leukemia; OVCAR-4 ovarian.
Holding throughout (assay): inhibition of tumour cell growth, NCI panel, 48 h

For the compound `N#Cc1ccccc1C#C/C=C\C#Cc1cnccn1`, the GI50 in the test on KM12 colon was 3.49 µM; in the test on MCF7 breast, > 60 µM; in the test on SN12C renal it was 13.8 µM; with K-562 leukemia, 4.73 µM; in the test with OVCAR-4 ovarian, 36 µM. For the same compound, the TGI in the test with KM12 colon was > 31.5 µM; in the test on MCF7 breast, > 100 µM; in the test with SN12C renal, 41.5 µM; in the test on HOP-92 NSCLC, > 28.4 µM; with K-562 leukemia, > 100 µM; with OVCAR-4 ovarian, > 100 µM.

Turning to `CCOC(=O)C(Cc1ccc(N(CCCl)CCCl)cc1)NC(=O)C(CC(C)C)NC(C)=O` (stereo not drawn), the GI50 was 4.35 µM in the test on KM12 colon; 0.699 µM with MCF7 breast; 0.999 µM with SN12C renal; 0.727 µM in the test on HOP-92 NSCLC; 1.19 µM with K-562 leukemia; 1.33 µM in the test with OVCAR-4 ovarian. For the same compound, the TGI in the test with KM12 colon stood at 18.8 µM; in the test with MCF7 breast, 15.4 µM; in the test on SN12C renal, 10.9 µM; in the test on HOP-92 NSCLC, 2.82 µM; with K-562 leukemia, 7.96 µM; in the test on OVCAR-4 ovarian, 3.97 µM.

On to `CN(C)CCCn1c2c(c3ccc([N+](=O)[O-])cc3c1=O)C(=O)c1ccccc1-2`, for which the GI50 with KM12 colon was 28.4 µM; with MCF7 breast, 2.41 µM; with SN12C renal, 4.21 µM; with HOP-92 NSCLC, 9.78 µM; with K-562 leukemia, 6.05 µM; in the test with OVCAR-4 ovarian, 27.6 µM. The TGI in the test with KM12 colon is > 100 µM; in the test on MCF7 breast it was > 100 µM; in the test with SN12C renal, 24.5 µM; in the test on HOP-92 NSCLC, > 100 µM; in the test on K-562 leukemia, > 100 µM; with OVCAR-4 ovarian, > 100 µM.

In the case of `Cn1c(N)cc(=O)nc1N`, the TGI with KM12 colon, with MCF7 breast, in the test with SN12C renal, with K-562 leukemia and in the test with OVCAR-4 ovarian was > 100 µM each time.

As for `C=CC(=O)N1CC[C@@H](Oc2nc(Nc3ccc(N4CCC(N5CCN(C)CC5)CC4)cc3)c(C(N)=O)nc2CC)C1`, the GI50 in the test on KM12 colon, in the test with MCF7 breast, in the test with SN12C renal, in the test with HOP-92 NSCLC, with K-562 leukemia and with OVCAR-4 ovarian was > 100 µM each time. The TGI with KM12 colon, in the test on MCF7 breast, with SN12C renal, in the test with HOP-92 NSCLC, with K-562 leukemia and with OVCAR-4 ovarian was > 100 µM throughout.

Consider `CCS(=O)(=O)Nc1ccc(Oc2ccc(F)cc2F)c(-c2cn(C)c(=O)c3[nH]ccc23)c1`, for which the GI50 was 0.109 µM in the test with KM12 colon; < 0.01 µM in the test with MCF7 breast; 0.981 µM in the test with SN12C renal; 0.0322 µM in the test with K-562 leukemia; 0.275 µM in the test on OVCAR-4 ovarian. In addition, the TGI in the test on KM12 colon was 18.2 µM; in the test on MCF7 breast, 14.3 µM; in the test with SN12C renal it was 31.2 µM; with HOP-92 NSCLC, 28.3 µM; in the test on K-562 leukemia it was > 62.6 µM; with OVCAR-4 ovarian it was 37 µM.

Consider `Cn1cnc2nc(Cl)nc(Cl)c21`, for which the GI50 in the test on KM12 colon is 0.43 µM; in the test with MCF7 breast it was 0.335 µM; with SN12C renal, 3.37 µM; in the test with HOP-92 NSCLC, 2.09 µM; with K-562 leukemia it was 0.713 µM; with OVCAR-4 ovarian, 4.7 µM. In addition, the TGI was found to be 2.46 µM with KM12 colon; 13.2 µM in the test on MCF7 breast; 24.1 µM with SN12C renal; 10.5 µM in the test with HOP-92 NSCLC; 94.7 µM in the test with K-562 leukemia; 17.6 µM in the test with OVCAR-4 ovarian.

As for `COC(=O)[C@@H](C)C[C@H](Cc1ccccc1)NC(=O)c1cccc([C@@H](C[C@H](C(C)C)N(C)C(=O)[C@@H](NC(=O)[C@H]2CCCCN2C)C(C)C)OC(C)=O)n1`, the GI50 with KM12 colon is < 0.00167 µM; with MCF7 breast it was < 0.00167 µM; in the test on SN12C renal it was 0.00266 µM; in the test on HOP-92 NSCLC it was < 0.00167 µM; with K-562 leukemia, < 0.00167 µM; in the test with OVCAR-4 ovarian it was 0.00477 µM. In addition, the TGI in the test on KM12 colon is > 16.7 µM; with MCF7 breast, > 16.7 µM; in the test on SN12C renal, > 16.7 µM; in the test on HOP-92 NSCLC, 0.114 µM; in the test on K-562 leukemia, > 16.7 µM; in the test with OVCAR-4 ovarian, > 16.7 µM.

Turning to `Cc1ccc(SCN2CCCCC2)cc1` (tested in a mixture with another compound), the TGI with KM12 colon stood at 26.5 µM; in the test on MCF7 breast it was 59.4 µM; in the test on SN12C renal, 31.4 µM; with HOP-92 NSCLC, 31 µM; with K-562 leukemia, 46.3 µM; in the test with OVCAR-4 ovarian, 43.8 µM.

For the compound `COc1ccc(C2CC(c3cccc(Nc4ccnc5cc(Cl)ccc45)c3)=NN2c2ccc(Cl)cc2)cc1` (stereo not drawn), the GI50 in the test on KM12 colon is 0.713 µM; with MCF7 breast, 3.45 µM; with SN12C renal it was 13 µM; in the test on HOP-92 NSCLC, 10.8 µM; in the test with K-562 leukemia, 2.75 µM. Moreover, the TGI with KM12 colon is 23.9 µM; in the test with MCF7 breast, 44.3 µM; in the test on SN12C renal it was > 100 µM; with HOP-92 NSCLC, 66.3 µM; in the test on K-562 leukemia, > 100 µM.

Turning to `CCOC(=O)c1ccccc1NC(c1ccccc1)c1ccc2cccnc2c1O` (stereo not drawn), the GI50 in the test with KM12 colon is 3.99 µM; with MCF7 breast, 2.98 µM; with SN12C renal, 3.83 µM; in the test on HOP-92 NSCLC it was 7.98 µM; in the test with K-562 leukemia, 3.34 µM; in the test on OVCAR-4 ovarian it was 3.21 µM. The TGI with KM12 colon was > 100 µM; in the test on MCF7 breast it was 45 µM; in the test on SN12C renal it was > 100 µM; with HOP-92 NSCLC, > 100 µM; in the test on K-562 leukemia it was > 100 µM; in the test on OVCAR-4 ovarian, > 100 µM.

Turning to `CC(C)(O)C1CC(=O)C(C)(C2C(O)CC3(C)C4CC=C5C(CCC(O)C5(C)C)C4(C)C(=O)CC23C)O1` (stereo not drawn), the TGI in the test with KM12 colon, with MCF7 breast, in the test on SN12C renal, in the test with HOP-92 NSCLC, with K-562 leukemia and in the test on OVCAR-4 ovarian was > 100 µM throughout.

Turning to `N#CC1=C(N)Oc2c(ccc3ccccc23)C1c1ccccc1Cl` (stereo not drawn), the GI50 was 0.227 µM with KM12 colon; 0.383 µM in the test with MCF7 breast; 0.722 µM in the test with SN12C renal; 2.24 µM in the test with HOP-92 NSCLC; 0.0796 µM in the test with K-562 leukemia; 1.13 µM in the test with OVCAR-4 ovarian. Also, the TGI with KM12 colon was 7.9 µM; in the test on MCF7 breast, 15.2 µM; in the test with SN12C renal it was 13.9 µM; in the test on HOP-92 NSCLC, 15.1 µM; in the test on K-562 leukemia, > 43.5 µM; in the test on OVCAR-4 ovarian, 20.4 µM.

(Values after PubChem BioAssay (NCI).)
